According to US20250206732A1, “COMPOUNDS AND METHODS FOR THE TARGETED DEGRADATION OF KRAS” (Arvinas Operations, Inc., priority 2022, published 2025):

Molecular target: T1, AsPC-1 HiBiT-KRASG12D (Homo sapiens, UniProt P01116, G12D)
T1 construct: insert the HiBiT tag onto the N-terminus of one or more of the endogenous KRAS alleles; endogenous in cells; host or cells: AsPC-1 (ATCC CRL-1682), CRISPR-Cas9 knock-in clone, one tagged allele
Assay: HiBiT degradation assay (G12D), AsPC-1 HiBiT-KRASG12D cells
Assay type: cell-based
Details: 24 hours treatment; for Dmax: ASPC1, AsPC-1 HiBiT-KRASG12D cells, maximum degradation observed; for DC50: AsPC-1 HiBiT-KRASG12D cells, HiBiT luminescence
Method in brief: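 In this degradation format, an engineered AsPC-1 clone with HiBiT fused to the KRAS N-terminus is exposed to compounds for 24 hours, after which remaining tagged protein is quantified by lytic HiBiT luminescence.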

T1 sequence (P01116 1-188 isoform P01116-2 G12D): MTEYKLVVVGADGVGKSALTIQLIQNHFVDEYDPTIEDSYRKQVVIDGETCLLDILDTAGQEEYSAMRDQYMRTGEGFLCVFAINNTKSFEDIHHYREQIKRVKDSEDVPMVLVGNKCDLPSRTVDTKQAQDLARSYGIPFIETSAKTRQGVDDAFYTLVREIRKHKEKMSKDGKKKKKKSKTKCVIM

Work on CCc1cccc2cc(O)cc(-c3ncc4c(N5CC6CCC(C5)N6)nc(OCCN5C[C@@H]6CN(c7cc(C(C(=O)N8C[C@H](O)C[C@H]8C(=O)N[C@@H](C)c8ccc(-c9scnc9C)cc8)C(C)C)on7)C[C@@H]6C5)nc4c3F)c12 (relative stereo) [Compound 80, (2S,4R)-1-[(2R*)-2-{3-[(3aR,6aS)-5-{2-[(4-{3,8-diazabicyclo[3.2.1]octan-3-yl}-7-(8-ethyl-3-hydroxynaphthalen-1-yl)-8-fluoropyrido[4,3-d]pyrimidin-2-yl)oxy]ethyl}-octahydropyrrolo[3,4-c]pyrrol-2-yl]-1,2-oxazol-5-yl}-3-methylbutanoyl]-4-hydroxy-N-[(1S)-1-[4-(4-methyl-1,3-thiazol-5-yl)phenyl]ethyl]pyrrolidine-2-carboxamide] yielded a Dmax of 80 to 100% and a DC50 of under 600 nM.
Work on Cc1ncsc1-c1ccc([C@H](C)NC(=O)[C@@H]2C[C@@H](O)CN2C(=O)[C@@H](c2cc(N3CCN(C(=O)OC[C@@H]4CC[C@@]5(COc6nc(N7CC8CCC(C7)N8)c7cc(Cl)c(-c8cc(O)cc9ccccc89)c(F)c7n6)CCCN45)CC3)no2)C(C)C)cc1 (relative stereo) [Compound 330, [(3R,8S)-8-[[6-chloro-4-(3,8-diazabicyclo[3.2.1]octan-3-yl)-8-fluoro-7-(3-hydroxy-1-naphthyl)quinazolin-2-yl]oxymethyl]-1,2,3,5,6,7-hexahydropyrrolizin-3-yl]methyl 4-[5-[(1R)-1-[(2S,4R)-4-hydroxy-2-[[(1S)-1-[4-(4-methylthiazol-5-yl)phenyl]ethyl]carbamoyl]pyrrolidine-1-carbonyl]-2-methyl-propyl]isoxazol-3-yl]piperazine-1-carboxylate] yielded a Dmax of 60 to 80% and a DC50 of under 600 nM.
Cc1ncsc1-c1ccc([C@H](C)NC(=O)[C@@H]2C[C@@H](O)CN2C(=O)[C@@H](c2cc(N3CCN(C(=O)OC[C@@H]4CC[C@]5(COc6nc(N7CC8CCC(C7)N8)c7cc(Cl)c(-c8cc(O)cc9ccccc89)c(F)c7n6)CCCN45)CC3)no2)C(C)C)cc1 (relative stereo) [Compound 328, [(3S,8S)-8-[[6-chloro-4-(3,8-diazabicyclo[3.2.1]octan-3-yl)-8-fluoro-7-(3-hydroxy-1-naphthyl)quinazolin-2-yl]oxymethyl]-1,2,3,5,6,7-hexahydropyrrolizin-3-yl]methyl 4-[5-[(1R)-1-[(2S,4R)-4-hydroxy-2-[[(1S)-1-[4-(4-methylthiazol-5-yl)phenyl]ethyl]carbamoyl]pyrrolidine-1-carbonyl]-2-methyl-propyl]isoxazol-3-yl]piperazine-1-carboxylate] showed a Dmax of 80 to 100% and a DC50 of under 600 nM.
C#Cc1c(F)ccc2cc(O)cc(-c3ncc4c(N5CC6CCC(C5)N6)nc(OCCN5CCC(CC6CCN(c7cc([C@H](C(=O)N8C[C@H](O)C[C@H]8C(=O)N[C@@H](C)c8ccc(-c9ccnn9C)cc8)C(C)C)on7)CC6)CC5)nc4c3F)c12 [Compound 168, (2S,4R)-1-[(2R)-2-(3-{4-[(1-{2-[(4-{3,8-diazabicyclo[3.2.1]octan-3-yl}-7-(8-ethynyl-7-fluoro-3-hydroxynaphthalen-1-yl)-8-fluoropyrido[4,3-d]pyrimidin-2-yl)oxy]ethyl}piperidin-4-yl)methyl]piperidin-1-yl}-1,2-oxazol-5-yl)-3-methylbutanoyl]-4-hydroxy-N-[(1S)-1-[4-(1-methyl-1H-pyrazol-5-yl)phenyl]ethyl]pyrrolidine-2-carboxamide] showed a Dmax of 80 to 100% and a DC50 of under 600 nM.
CCc1cccc2cc(O)cc(-c3ncc4c(N5CC6CCC(C5)N6)nc(OCCN5CCC(CN6CCN(c7cc([C@H](C(=O)N8C[C@H](O)C[C@H]8C(=O)N[C@@H](C)c8ccc(-c9scnc9C)cc8)C(C)C)on7)CC6)CC5)nc4c3F)c12 (relative stereo) [Compound 276] showed a Dmax of 80 to 100% and a DC50 of under 600 nM.
CCc1cccc2cc(O)cc(-c3ncc4c(N5CC6CCC(C5)N6)nc(OCCN5CCC(CC6CN(CC(=O)N[C@H](C(=O)N7C[C@H](O)C[C@H]7C(=O)N[C@@H](C)c7ccc(-c8scnc8C)cc7)C(C)(C)C)C6)CC5)nc4c3F)c12 [Compound 273, (2S,4R)-1-[(2S)-2-(2-{3-[(1-{2-[(4-{3,8-diazabicyclo[3.2.1]octan-3-yl}-7-(8-ethyl-3-hydroxynaphthalen-1-yl)-8-fluoropyrido[4,3-d]pyrimidin-2-yl)oxy]ethyl}piperidin-4-yl)methyl]azetidin-1-yl}acetamido)-3,3-dimethylbutanoyl]-4-hydroxy-N-[(1S)-1-[4-(4-methyl-1,3-thiazol-5-yl)phenyl]ethyl]pyrrolidine-2-carboxamide] showed a Dmax of 80 to 100% and a DC50 of under 600 nM.
Compound CCc1cccc2cc(O)cc(-c3ncc4c(N5CC6CCC(C5)N6)nc(OCCN5CCC6(CC5)CN(c5cc([C@@H](C(=O)N7C[C@H](O)C[C@H]7C(=O)NCc7ccc(-c8scnc8C)cc7)C(C)C)on5)C6)nc4c3F)c12 (relative stereo) [Compound 99, (2S,4R)-1-[(2R*)-2-[3-(7-{2-[(4-{3,8-diazabicyclo[3.2.1]octan-3-yl}-7-(8-ethyl-3-hydroxynaphthalen-1-yl)-8-fluoropyrido[4,3-d]pyrimidin-2-yl)oxy]ethyl}-2,7-diazaspiro[3.5]nonan-2-yl)-1,2-oxazol-5-yl]-3-methylbutanoyl]-4-hydroxy-N-{[4-(4-methyl-1,3-thiazol-5-yl)phenyl]methyl}pyrrolidine-2-carboxamide] has a Dmax of 20 to 60% and a DC50 of over 3000 nM.
CCc1cccc2cc(O)cc(-c3ncc4c(N5CC6CCC(C5)N6)nc(OCCN5CCC(CCOc6cc([C@H](C(=O)N7C[C@H](O)C[C@H]7C(=O)N[C@@H](C)c7ccc(-c8scnc8C)cc7)C(C)C)on6)CC5)nc4c3F)c12 [Compound 249] gave a Dmax of 80 to 100% and a DC50 of under 600 nM.
CCc1cccc2cc(O)cc(-c3ncc4c(N5CC6CCC(C5)N6)nc(OCCN5CCC(O)(CC6CCN(c7cc([C@H](C(=O)N8C[C@H](O)C[C@H]8C(=O)N[C@@H](C)c8ccc(-c9scnc9C)cc8)C(C)C)on7)CC6)CC5)nc4c3F)c12 [Compound 204, (2S,4R)-1-[(2R)-2-(3-{4-[(1-{2-[(4-{3,8-diazabicyclo[3.2.1]octan-3-yl}-7-(8-ethyl-3-hydroxynaphthalen-1-yl)-8-fluoropyrido[4,3-d]pyrimidin-2-yl)oxy]ethyl}-4-hydroxypiperidin-4-yl)methyl]piperidin-1-yl}-1,2-oxazol-5-yl)-3-methylbutanoyl]-4-hydroxy-N-[(1S)-1-[4-(4-methyl-1,3-thiazol-5-yl)phenyl]ethyl]pyrrolidine-2-carboxamide] gave a Dmax of 80 to 100% and a DC50 of under 600 nM.
CCc1cccc2cc(O)cc(-c3ncc4c(N5CCCCCC5)nc(OC[C@]56CCCN5[C@H](COC(=O)N5CC7(C5)CN(c5cc([C@@H](C(=O)N8C[C@H](O)C[C@H]8C(=O)N[C@@H](C)c8ccc(-c9scnc9C)cc8)C(C)C)on5)C7)CC6)nc4c3F)c12 [Compound 284, [(3S,8R)-8-[[4-(azepan-1-yl)-7-(8-ethyl-3-hydroxy-1-naphthyl)-8-fluoro-pyrido[4,3-d]pyrimidin-2-yl]oxymethyl]-1,2,3,5,6,7-hexahydropyrrolizin-3-yl]methyl 6-[5-[(1S)-1-[(2S,4R)-4-hydroxy-2-[[(1S)-1-[4-(4-methylthiazol-5-yl)phenyl]ethyl]carbamoyl]pyrrolidine-1-carbonyl]-2-methyl-propyl]isoxazol-3-yl]-2,6-diazaspiro[3.3]heptane-2-carboxylate] gave a DC50 of over 3000 nM.
